How the values were obtained:
[1] = Respective studies with other long-acting insulins; type: in vivo; details: no data given
Source text: The results of the ORIGIN study were obtained with the long-lasting insulin glargine.

[2] = tested on: diabetic patients hospitalized with acute MI; details: IV insulin-glucose infusion then chronic insulin vs standard treatment; cited from earlier work
[3] = tested on: critical-care post-surgical patients; details: intervention group: insulin infusion to blood glucose 80-110 mg/dL; cited from earlier work

Substance	results of respective studies compared with the ORIGIN results of insulin glargine [1]	reduction of all-cause mortality [2]	overall mortality at twelve-months follow-up [3]
insulin degludec	comparable results	–	–
insulin detemir	comparable results	–	–
insulin: insulin infusion or chronic insulin treatment in cited DIGAMI and Belgian ICU studies	–	28%	8.0%
